From patent US8013112B2, “Compositions comprising human brain natriuretic peptide (BNP) fragments” (Abbott Laboratories, priority 2006, dated 2011) come the findings set out here.

Series [1] is classed as in vitro ADME, human. On the procedure: EDTA plasma of healthy human subjects and human BNP plasma specimens were obtained from ProMedDx LLC (Norton, Mass.), shipped on dry ice, and stored at −70° C. before use.
In this study, human BNP degradation products in human BNP specimens and the impact of temperature on degradation was studied. Prior to sample extractions for analysis, each sample was split into two vials and incubated at room temperature for 0 hours (t=0 hour) and 48 hours (t=48 hours), respectively. The samples were then extracted using the methodology described in Example 4 and analyzed by the API 4000.
Experiments were conducted to determine if human BNP n-32 fragments (where n is an interger b=1, 2, 3, 4, 5, 6) were present in the specimen and to evaluate whether aminopeptidase type protease is involved in human BNP degradation. The samples were prepared and analyzed using the same methodology as described in Example 4, except that samples were monitored for human BNP n-32 fragments (n=1, 2, 3, 4, 5, 6[…]).
Next, to determine if ring cleavage products were present, human BNP fragment 5-32x was then monitored prior to and after incubation at room temperature. The samples were not monitored for other human BNP n-32x fragments since these fragments would be formed by the same process as human BNP 5-32x fragments. Additionally, monitoring for more fragments would reduce the detection sensitivity of the method.
Using both of these approaches, human BNP fragments prior to and after room temperature incubation were monitored for both human BNP n-32 fragments and human BNP n-32x fragments for 20 samples.

The format of series [2] is in vitro ADME, human. Here is the method: Human BNP was spiked into Human BNP specimens (EDTA plasma) using the same procedure as in Example 2, and the spiked samples were studied using the same methodology as in Example 4. […] However, the cleavage rates appeared to be slower in the heart-failure patient samples: after 8 hours incubation at the room temperature, 80% of the degradation products still contain the C-terminus (human BNP fragment 3-32, human BNP 1-32, and human BNP fragments 3-32X and 1-32x). When the same concentration of human BNP was spiked into a pooled EDTA plasma of healthy human subjects, only 5% of the fragments contain intact C-terminus after 4 hours incubation at room temperature (See, Example 5).
This is another data set of the same source.

Series [3] can be described thus: Degradation time course of human BNP 1-32 spiked in pooled EDTA plasma of healthy human subjects, LC/MS.
Excerpt: An aliquot of the mixture was taken at various time points with protease inhibitor added and frozen immediately. Samples were extracted along with an internal standard (the internal standard was a biotinylated human BNP mutant. In this mutant, amino acid 32 (histidine) was replaced by alanine and is hereinafter referred to as “Biotin-BNP1-32 (H32A)”) by a monoclonal antibody 106.3 (hereinafter referred to as “mAb 106.3”) coated magnetic microparticles and released human BNP and fragments were analyzed by LC/MS. The relative abundance of each fragments were plotted.
To study human BNP degradation near physiological concentration, an API4000 LC/MS system (Applied Biosystems, Foster City, Calif.) equipped with Agilent 1100 HPLC was used to determine the degradation of human BNP spiked at 5 ng/mL in a pooled normal EDTA plasma. […] The major human BNP degradation products (namely, 1-32, 3-32, 3-30, and 3-30x) and kinetics were analyzed by LC/MS using selected ion monitoring mode according to instrument protocol. […]
The relative concentration of human BNP fragments 3-32, 3-30 and 3-30x were monitored at various time points (0.5, 4, 6, 8, 10, 24 hours). Triply charged human BNP peptides and human BNP fragments, namely, 1-32, 3-32, 3-30, and 3-30x were monitored at m/z 1155.6, 1094.6.

Bridges are numbered along the chain shown (N, C = ends). Roman numbers before positions name the chains, in order. Where no end group is shown, it is not given here.

With “5-30x: Human BNP Fragment Composition 5-30x: ring-cleaved, cross-linked form of fragment 5-30”, the “Human BNP fragment Peak high ranking (T = 0 hours)” value in series [1] turned out to be 4.
As to “3-30x: Human BNP Fragment Composition: 3-30 with ring cleavage, two fragments (e.g. BNP3-17 and BNP18-30) cross-linked by disulfide bond (chain 1 KMVQGSGCFGRKMDR; chain 2 ISSSSGLGCKVLR; disulfide I:8-II:9 (inferred))”, the “Human BNP fragment Peak high ranking (T = 0 hours)” value in series [1] amounted to 5.
For the compound `CC[C@H](C)[C@@H]1NC(=O)[C@H](CCCNC(=N)N)NC(=O)[C@H](CC(=O)O)NC(=O)[C@H](CCSC)NC(=O)[C@H](CCCCN)NC(=O)[C@H](CCCNC(=N)N)NC(=O)CNC(=O)[C@H](Cc2ccccc2)NC(=O)[C@@H](NC(=O)CNC(=O)[C@H](CO)NC(=O)CNC(=O)[C@H](CCC(N)=O)NC(=O)[C@@H](NC(=O)[C@H](CCSC)NC(=O)[C@H](CCCCN)NC(=O)[C@@H]2CCCN2C(=O)[C@@H](N)CO)C(C)C)CSSC[C@@H](C(=O)N[C@@H](CCCCN)C(=O)N[C@H](C(=O)N[C@@H](CC(C)C)C(=O)N[C@@H](CCCN=C(N)N)C(=O)N[C@@H](CCCN=C(N)N)C(=O)N[C@@H](Cc2cnc[nH]2)C(=O)O)C(C)C)NC(=O)CNC(=O)[C@H](CC(C)C)NC(=O)CNC(=O)[C@H](CO)NC(=O)[C@H](CO)NC(=O)[C@H](CO)NC(=O)[C@H](CO)NC1=O` [1-32], in series [1], the “Human BNP fragment Peak high ranking (T = 0 hours)” value was 3. Also, in series [2], the “degradation products that still contain the C-terminus” value was found to be 80%. Further, the “relative concentration over the time course of study” value in series [3] (human BNP spiked at 5 ng/mL in pooled normal EDTA plasma, room temperature, 0.5-24 hours (FIG. 7)) is given as “decreased drastically”. Besides, the “fragments that contain intact C-terminus” value in series [3] (human BNP spiked in pooled EDTA plasma of healthy human subjects, after 4 hours incubation at room temperature) is listed as 5%.
“5-32x: ring-cleaved, cross-linked form of human BNP fragment 5-32”: in series [1], the “major cleavage product after incubation at room temperature” value is reported as “become the major product”.
